Patent publication US20250340529A1, “Heterocyclic Compounds as Immunomodulators of PD-L1 Interactions” (Ascletis BioScience Co., Ltd, priority 2021, published 2025)

How the values were obtained:
PD-L1/CHO-K1 cells = PD-L1/CHO-K1 cells (Homo sapiens (Human), UniProt Q9NZQ7); experiment: PD-L1 internalization (FACS, PD-L1/CHO-K1 cells); type: cell-based; conditions: % activation of PD-L1 internalization = 1 − PD-L1 signal; 17 hours incubation
In short: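 PD-L1/CHO-K1 cells treated 17 h at 37 °C with compound (0.2% DMSO final), then surface PD-L1 stained with PE anti-CD274 and read by flow cytometry. Signal normalized to vehicle (100%) and unstained control (0%); internalization = 1 − normalized PD-L1 signal.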

PD-1/PD-L1 = PD-1/PD-L1 (Homo sapiens (Human), UniProt Q9NZQ7); experiment: PD-1/PD-L1 Homogeneous Time-Resolved Fluorescence (HTRF) binding assay; conditions: 3 nM PD1, 10 nM PD-L1, 25° C., PBS pH 7.4
Chain of PD-1/PD-L1 (Q9NZQ7 19-238): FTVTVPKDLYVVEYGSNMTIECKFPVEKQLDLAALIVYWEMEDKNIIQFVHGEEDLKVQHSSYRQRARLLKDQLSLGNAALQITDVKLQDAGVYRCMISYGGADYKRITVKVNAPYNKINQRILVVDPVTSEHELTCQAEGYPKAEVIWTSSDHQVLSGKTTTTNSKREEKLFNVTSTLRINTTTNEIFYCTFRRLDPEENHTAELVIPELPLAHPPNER
In short: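 HTRF with His-tagged human PD-L1 (19-238, 10 nM) and Fc-tagged human PD-1 (25-167, 3 nM) preincubated with inhibitors 40 min in PBS pH 7.4, 0.05% Tween-20, 0.1% BSA, 1% DMSO, 25° C. Eu anti-human IgG and anti-His-APC added, 60 min; 665/620 nm ratio; IC50 from percent control activity fit.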

[1] = target: extracellular domains of PD-L1 (Homo sapiens (Human), UniProt Q9NZQ7); experiment: PD-L1 dimerization (biochemical protein-protein interaction assay); conditions: PDL1-Eu and PDL1-A2, 25° C., 120 min
Chain of extracellular domains of PD-L1 (Q9NZQ7 19-238): as above
Procedure: Compounds were tested in biochemical protein-protein interaction assays to determine if they can specifically dimerize the extracellular domains of PD-L1. • (1) Dilute cpd 1:3 in succession in DMSO for each column for 10±0 pts (refer to dilution plate map) • (2) Transfer 0.2 μL cpds solution in each row to 384 assay plate using Echo, each column containing 2 replicates (refer to assay plate map). • (3) Add 20 μL prepared mixture include PDL1-Eu and PDL1-A2 solution to assay plate, centrifuge at 1000 rpm for 1 min. • (4) Incubate at 25° C. for 120 min. • (5) Read fluorescence signal on Envision 2104 plate reader. • (6) Read the Ratio (665 nm/615 nm) signal on Envision. • (7) Analyze the raw data using the equation (V. Data analysis)

[2] = system: Hep3B-OS8-hPDL1 cells and CD3+ T cells; experiment: Hep3B-OS8-hPDL1 and T cells co-culture assay (IFN-γ by ELISA); type: cell-based; conditions: Homo sapiens, T-cell, 72 hours, read-out: Tumor and T Cell EC50 (nm)
Procedure: a. Hep3B-OS8-hPDL1 and T Cells Co-Culture Assay
• 1. Hep3B-OS8-hPDL1 cells were cultured in 1640 medium supplemented with 10% fetal bovine serum, 1% penicillin and streptomycin, in which 100 μg/mL G418 and Hygromycin B were also added. • 2. Hep3B-OS8-hPDL1 cells were harvested and treated with 10 μg/mL mitomycin C at 37° C. for 1.5 h, and the cells were then washed thoroughly with PBS for four times. • 3. Cells were re-suspended with RPMI 1640 medium containing 10% FBS and the cell density was adjusted to 5E5 cells/mL. • 4. Cells were seeded into 96-well flat bottom plate (2.5E4 cells/50 μL/well). b. CD3+ T Cells Isolation (30 mL Blood) • 5. The human blood sample from an individual donor is diluted by the same volume of sterile PBS, for instance add 25 mL sterile PBS into 25 mL fresh whole blood and mix sufficiently by gentle shake. • 6. Transfer 15 mL Lymphoprep medium into a new 50 mL centrifuge tube. • 7. Add the diluted blood sample as soft as possible onto the surface of the Ficoll medium to make sure there is a clear dividing line between the two liquids, and the volume ratio between Ficoll and diluted blood (30 mL) is 1:2. • 8. Move the tube gently to centrifuge, at 1000×g, 25 min, 20° C., with the acceleration (5) and Min deceleration (0) settings during the centrifugation. • 9. Four interfaces in all could be observed after the centrifugation, which are layers of plasma, mononuclear cells, the Ficoll medium and RBCs from top to bottom, and move the tube as gently as possible so as keep the four interfaces separated. Absorb and transfer the second layer of mononuclear cells into another new sterile centrifuge tube carefully, and absorb certain volume of plasma instead of the Ficoll medium if inevitable. • 10. Add sterile PBS of the three times the volume of PBMCs in the tube with PBMC. • 11. Wash the cells twice with 5-10 mL PBS before cell counting with cytometer. Centrifuge at 350×g, 10 min, 20° C. With the acceleration (5) and deceleration (5) settings during the centrifugation. • 12. Resuspend the cells with recommended medium and adjust the density of the PBMCs to the final concentration of 5E7 cells/mL. • 13. Isolate CD3+ T cells with EasySep™ Human T Cell Isolation Kit (STEMCELL Technologies #17951), and the cells were seeded into 96-well flat bottom plate (5E4 cells/100 μL/well). c. Compounds solutions preparation • 14. Prepare the Compounds dilutions in RPMI 1640 medium with 10% FBS according to the Layout. 15. Add compounds into each well in a volume of 50 μL. {3 compounds (GLC01-258, GLC01-269, GLC01-465) in 7 concentrations (0.03, 0.1, 0.3, 1, 3, 10 and 30 μM) and 6 compounds (GLC01-411, GLC01-292, GLC01-445, GLC01-475, GLC01-470 and GLC01-468) in the same concentration (1 μM)}. • 16. […]

Chain of PD-L1/CHO-K1 cells (Q9NZQ7 19-290): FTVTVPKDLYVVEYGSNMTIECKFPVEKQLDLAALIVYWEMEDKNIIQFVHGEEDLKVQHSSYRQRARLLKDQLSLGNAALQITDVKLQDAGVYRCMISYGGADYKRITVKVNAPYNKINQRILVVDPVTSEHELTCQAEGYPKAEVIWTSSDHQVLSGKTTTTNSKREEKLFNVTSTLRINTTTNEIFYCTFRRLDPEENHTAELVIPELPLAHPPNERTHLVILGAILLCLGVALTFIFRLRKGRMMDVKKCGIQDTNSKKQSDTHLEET

Internalization (PD-L1/CHO-K1 cells): 23.20%
IC50 (PD-1/PD-L1): 5.51 nM
EC50 [1]: 55.8 nM
EC50 [2]: 5.1 nM
Compound: O=C(O)[C@H](CO)NCCN1C(=O)COc2cc(-c3cccc(-c4cccc(-c5cc6c(cc5F)N(CCN[C@@H](CO)C(=O)O)C(=O)CO6)c4Cl)c3Cl)c(F)cc21 [Compound 554, (2S,2'S)-2,2′-((((2,2′-dichloro-[1,1′-biphenyl]-3,3′-diyl)bis(6-fluoro-3-oxo-2,3-dihydro-4H-benzo[b][1,4]oxazine-7,4-diyl))bis(ethane-2,1-diyl))bis(azanediyl))bis(3-hydroxypropanoic acid)]
